Like-named read-outs stand apart in the source and are kept apart here. Marks after values point to notes of the source that are not given here. Where a SMILES comes first, the peptide text is derived from it. Bridges are numbered along the chain shown (N, C = ends). [ ]: non-standard residue; d: D form.
Assays:
[1] = Light scattering aggregation kinetics; format: physicochemical
Experimental: Light scattering was used to monitor the aggregation of peptide PHB4. The measurements were performed on a Shimadzu™ RF-5301PC (Shimadzu, Japan) spectrofluorimeter, acquiring data with the software provided by the instrument manufacturer. The wavelengths of the incident light beam (excitation) and the detector (emission) were set to 320 nm, using excitation and emission apertures of 5 nm. The scattering of light due to the peptide was calculated by subtracting, from the intensity of the light dispersed by the peptide, the intensity of the light dispersed by a solution without peptide (blank). Variations on light scattering due to the dissolution of the peptide in PBS were studied by acquiring data in time course mode, with a measurement frequency of 1 or 2 per second. The solutions of PHB4 in PBS were prepared by mixing one part of a solution of the peptide in water with one part of a PBS 2X solution.

DENV2 = test: In vivo protection assay, intracranial challenge, DENV2; design: species or system Balb/c mice; conditions: 30 μg peptide inoculated intracranially with 10 median lethal doses, 21 days
Experimental: (§1) An experiment was set up to evaluate the in vivo antiviral activity of peptide PHB4 and compare it to that of peptide HDIII3CL. For this purpose, groups of 12 adult Balb/c mice (20 g average body weight) were anesthetized by ether inhalation and inoculated intracranially with 20 μL of viral preparations containing 10 times the median lethal dose of this model and the peptide to be evaluated. The animals recovered quickly and already appeared alert five minutes after the treatment, and were monitored afterwards for 21 days. The data were evaluated using the Kaplan-Meier logarithmic rank test.

DENV1 = test: In vivo protection assay, intracranial challenge, DENV1; design: species or system Balb/c mice; conditions: 30 μg peptide inoculated intracranially with 10 median lethal doses, 21 days
Experimental: as §1

DENV3 = test: In vivo protection assay, intracranial challenge, DENV3; design: species or system Balb/c mice; conditions: 30 μg peptide, morbidity evaluated instead of lethality
Experimental: as §1

[2] = tested on: DENV3 (NIBSC code CH53489); test: Plaque reduction assay in Vero cells, DENV3; format: cell-based, Dengue virus; conditions: m.o.i. 0.001, read-out: Antiviral activity IC50 vs DENV3
Experimental: (§2) The cells were grown in 24 well plates until the monolayer reached approximately 90% confluence, after which they were washed twice with MEM medium without Fetal Bovine Serum (FBS). Then, peptide dilutions were added and the cell-peptide mixtures were incubated typically for 1 hour at 37° C., followed by the addition of a DENV serotype 2 preparation (NIBSC code S16803) at a multiplicity of infection (m.o.i.) of 0.001. The cells were then incubated for 1 hour at 37° C., and once the period of incubation with the viral inoculum concluded, were washed again to remove unbound virions and incubated for 5 days at 37° C. in high density medium (MEM supplemented with non-essential amino acids, 1% FBS, 1% carboxymethylcellulose) in order to let viral plaques form. Afterwards, the cells were stained with 0.1% Naphtol Blue Black in 0.15 M sodium acetate. Two replicates per experimental point were used in each assay, and three independent determinations were performed for each sample.
(§3) Next, it was decided to compare the antiviral activity of peptides PHB4 and HDIII3CL against all four DENV serotypes, with the objective of comparing their respective IC50 values. […]

DENV2 strain S16803 = tested on: DENV2 strain S16803
Experimental: The antiviral activity of peptide PHB4 was evaluated after treatments facilitating its aggregation or in the presence of different agents that modulate aggregation, with the purpose of examining their effect on the inhibitory activity of this peptide for the infection of Huh7.5 cells with DENV2 strain S16803. Huh7.5, a human hepatoma-derived cell line, was selected not only because it is permissive for DENV2, but because of its relevance as an experimental system from the viewpoint of DENV pathogenesis (Lin Y L, et al. (2000) J Med Virol.; 60(4):425-31).
Antiviral activity was evaluated in virus yield assays, in which 80-90% confluent Huh7.5 monolayers were washed twice with non-supplemented DMEM and then infected at a m.o.i of 0.01 for 2 h at 37° C. and 5% CO2 in the presence of the different peptide preparations, after which the viral inoculum was removed by washing with non-supplemented DMEM, and the cells were grown in DMEM supplemented with 2% FBS. Cell supernatants were collected at 24 h p.i., and virus yields were determined by titrating the supernatant in a plaque formation assay (Morens D. M., et al. (1985). N. J. Clin. Microbiology; 22: 250-254).
Therefore, a first series of assays was set up in which, starting from a 20 μM solution of the peptide in water, dilutions were prepared in MEM spanning the 10-0.01 μM concentration range, which were then incubated in parallel at 10° C. and 37° C. for 2 hours and then used in a viral inhibition assay. Non-incubated peptide dilutions (that is, prepared right before the viral inhibition assay) were used as controls.
A second experiment was designed to determine the influence of aggregation time on the antiviral potency of peptide PHB4 (FIG. 18). […] This incubation with HSA was performed in parallel at either 10° C. or 37° C.

[3] = Transmission electron microscopy of aggregate morphology; format: physicochemical
Experimental: In order to analyze the morphology of the aggregates formed by peptide PHB4, peptide solutions were subjected to different experimental treatments where conditions such as temperature, incubation time and the presence of electrolytes were manipulated to facilitate aggregation (FIG. 10). For this particular study, two peptide solutions (2 mg/mL, 0.73 mM) were prepared, one in water and another in PBS. A sample was then taken from each, directly fixed on the grids and observed under the microscope (T0 samples). The remainder was incubated for 1 hour at 50° C. and then samples were taken and fixed immediately (T1 samples). The remainder was then incubated for an additional 2 hours at room temperature, and then fixed (T2 samples).

DENV4 = test: In vivo protection assay, intracranial challenge, DENV4; design: species or system Balb/c mice; conditions: 30 μg peptide inoculated intracranially with 10 median lethal doses, 21 days
Experimental: as §1

[4] = tested on: DENV 4 (NIBSC code TVP360); test: Plaque reduction assay in Vero cells, DENV4; format: cell-based, Dengue virus; conditions: m.o.i. 0.001, read-out: Antiviral activity IC50 vs DENV4
Experimental: as §2, §3

Compound: CC[C@H](C)[C@@H]1NC(=O)[C@H](Cc2ccccc2)NC(=O)[C@H](Cc2c[nH]c3ccccc23)NC(=O)[C@H](CC(N)=O)NC(=O)[C@H](C(C)C)NC(=O)[C@H](CCCCN)NC(=O)[C@H](Cc2c[nH]c3ccccc23)NC(=O)[C@H](CCCCN)NC(=O)[C@H]2CCCN2C(=O)[C@H](CCCNC(=N)N)NC(=O)[C@H]([C@@H](C)O)NC(=O)[C@H](Cc2c[nH]c3ccccc23)NC(=O)[C@H](Cc2ccc(O)cc2)NC(=O)[C@H](C(C)C)NC(=O)[C@H](CCC(=O)O)NC(=O)[C@H]([C@@H](C)CC)NC(=O)[C@@H](N)CSSC[C@@H](C(=O)N[C@@H](CCCCN)C(=O)N[C@@H](CCCCN)C(=O)N[C@@H](CCCCN)C(N)=O)NC1=O [PHB4] (H-CIEVYWTR[dP]KWKVNWFICKKK-NH2; disulfide 1-18; N-terminus assumed)
- Maximum of ratio of dispersed light relative to time zero ([1]; 5 μM peptide in PBS): 11
- Maximum of ratio of dispersed light relative to time zero ([1]; 10 μM peptide in PBS): 7
- Latency period before increase of dispersed light ([1]; dissolved into PBS): < 2 min
- Protection (%) DENV2 (DENV2): 100*** %
- Protection (%) DENV1 (DENV1): 100*** %
- Protection (%) DENV3 (DENV3): 100*** %
- IC50 [2]: 5 nM
- Variation in potency with incubation temperature (DENV2 strain S16803; 10° C. vs 37° C. pre-incubation): 24 fold
- IC100 (DENV2 strain S16803; Huh7.5 cells, non-incubated peptide in MEM): 10 µM
- IC50 (DENV2 strain S16803; read-out: IC50, 2 hrs-10° C., Huh7.5 cells, peptide pre-incubated in MEM 2 h at 10° C.): 37 nM
- IC50 (DENV2 strain S16803; read-out: IC50, 2 hrs-37° C., Huh7.5 cells, peptide pre-incubated in MEM 2 h at 37° C.): 890 nM
- IC50 (DENV2 strain S16803; read-out: IC50, no incubation, Huh7.5 cells, peptide dissolved in MEM, non-incubated): 160 nM
- Size of protofibril/fibril-type filamentous structures ([3]; 2 mg/mL in water, after 50° C. treatment): 5-10 nm
- Diameter of particulates ([3]; 2 mg/mL in water, room temperature): 5-20 nm
- Size of filamentous structures ([3]; 2 mg/mL, immediately after dissolving in PBS): 5-20 nm
- Protection (%) DENV4 (DENV4): 100*** %
- IC50 [4]: 10 nM

From patent US9896482B2, “Beta hairpin peptides having antiviral properties against Dengue virus” (CENTRO DE INGENIERÍA GENÉTICA Y BIOTECNOLOGÍA, priority 2014, dated 2018)
